Data taken from the supplement of paper PMC6723410.

How the values were obtained:
GUMC-403 [1] = experiment: AC50 for reduction of cell viability; higher = less potent; settings: 48 h
GUMC-403 [2] = experiment: viability at highest tested concentration (max response) relative to DMSO (% of DMSO control); higher = less cytotoxic; settings: library / dose series: MIPE library, 11-point 1:3 dilution; top concentration 46.1 µM; 48 h
In short: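 Conditionally reprogrammed GUMC-403 papilloma cells from a patient were plated at 700/well in 5 μL F + Y medium in 1536-well plates and left overnight at 37 °C. A pin tool then added 23 nL of library compounds as an 11-point 1:3 series, for 48 h. CellTiter-Glo luminescence was read on a ViewLux and scaled with vehicle wells set to 100% and empty wells to 0%. Each value gives viability at the highest tested concentration relative to vehicle control.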

[3] = library / dose series: MIPE library, 11-point 1:3 dilution
[4] = library / dose series: NPC library, 8-point 1:5 dilution

| Structure (SMILES) | AC50 for reduction of cell viability (GUMC-403 [1]; [3]) [nM] | viability (GUMC-403 [2]) | AC50 for reduction of cell viability (GUMC-403 [1]; [4]) [nM] |
| --- | --- | --- | --- |
| NC(=O)[C@@H](CCC(F)(F)F)N(Cc1ccc(-c2ncon2)cc1F)[S+](=O)([O-])c1ccc(Cl)cc1 | 132 | 76.2 | – |
| COC1=CC=C2/C3=N/CCN3\C(=N/C2=C1OC)NC(=O)C4=CC=CN=C4 | 5900 | 64.7 | – |
| O=C1\C=C(/OC2=C1C=CC=C2C3=CC=CC=C3)N4CCOCC4 | 5900 | 61.6 | – |
| CC(C)C[C@@H](C(=O)N[C@H](C(=O)OC1CCCC1)c1ccccc1)[C@H](O)C(=O)NO | 1660 | 66.7 | – |
| C[C@@]12O[C@@H](C[C@]1(O)CO)n1c3ccccc3c3c4c(c5c6ccccc6n2c5c31)CNC4=O | 5900 | 7.55 | – |
| CCOC(=O)[C@H](CCc1ccccc1)N[C@@H](C)C(=O)N1[C@H](C(=O)O)C[C@@H]2CCC[C@@H]21 | 26400 | 4.65 | – |
| CC(C)N[C@@H]1CCn2c(=O)[nH]c3cccc(c32)[C@H]1O | 9350 | 30.4 | – |
| N#CC(=C(/N)Sc1ccccc1N)/C(C#N)=C(\N)Sc1ccccc1N | 4690 | 50.4 | – |
| COC1=CC(=CC(=C1)C2=CC=C3N=CC\4=C(N(C(=O)\C=C4)C5=CC(=C(C=C5)N6CCNCC6)C(F)(F)F)C3=C2)OC | 16600 | 28.5 | – |
| COc1cc(C[C@@H](CO)[C@H](CO)Cc2ccc(O)c(OC)c2)ccc1O | 2640 | 34.9 | – |
| COc1ccc(F)c(F)c1C(=O)c1cnc(NC2CCN([S+](C)(=O)[O-])CC2)nc1N | 4690 | 55.6 | – |
| CC[C@@]1(O)C(=O)OC\C2=C1\C=C\3N(CC4=C3N=C5C=CC=CC5=C4)C2=O | 16600 | 32.3 | – |
| CC(/C=C/C(=O)NO)=C\[C@@H](C)C(=O)c1ccc(N(C)C)cc1 | 20900 | 26 | – |
| NC(=O)c1ccc2[nH]c(-c3ccc(Oc4ccc(Cl)cc4)cc3)nc2c1 | 2640 | 79.5 | – |
| CC1(C)Cc2c(sc(NC(=S)NC(=O)c3ccccc3)c2C(=O)O)CO1 | 26400 | 25.5 | – |
| COc1cc(Nc2c(C#N)cnc3cc(OCCCN4CCN(C)CC4)c(OC)cc23)c(Cl)cc1Cl | 2350 | 74.7 | – |
| COC1=CC=C(C=N1)C/2=C/C3=C(C)N=C(N)N=C3N(C4CCC(CC4)OCCO)C2=O (stereo not drawn) | 264 | 4.47 | – |
| COC[C@H](NC(=O)c1cnc(C)s1)C(=O)N[C@@H](COC)C(=O)N[C@@H](Cc1ccccc1)C(=O)[C@@]1(C)CO1 | 6620 | 8.89 | – |
| CNC(=O)Nc1ccc(-c2nc(N3CC4CCC(C3)O4)c3cnn(C4CCC5(CC4)OCCO5)c3n2)cc1 | 3.32 | 62.9 | – |

| Structure (SMILES) | AC50 for reduction of cell viability (GUMC-403 [1]; [3]) [nM] | viability (GUMC-403 [2]) | AC50 for reduction of cell viability (GUMC-403 [1]; [4]) [nM] |
| --- | --- | --- | --- |
| CC[C@@H]1[C@@H](C)O[C@@](O)([C@@H](C)[C@H](O)[C@H](C)[C@H]2OC(=O)/C=C/C=C/[C@H](C)[C@@H]([C@@H](C)[C@@H](O)[C@H](C)[C@@]3(O)C[C@@H](O[C@H]4C[C@H](O)[C@H](O)[C@H](C)O4)[C@H](CC)[C@@H](C)O3)OC(=O)/C=C/C=C/[C@@H]2C)C[C@H]1O[C@H]1C[C@H](O)[C@H](O)[C@H](C)O1 | 26400 | 8.03 | – |
| COC(=O)Nc1ccc(-c2nc(N3CCOCC3)c3cnn(C4CCN(C(=O)OC)CC4)c3n2)cc1 | 26.4 | 13.8 | – |
| O=C(NC1CCNCC1)c1n[nH]cc1NC(=O)c1c(Cl)cccc1Cl | 1050 | 10.5 | – |
| COC1=C2C[C@@H](C)C[C@H](OC)[C@H](O)[C@@H](C)/C=C(\C)[C@H](OC(N)=O)[C@@H](OC)/C=C/C=C(\C)C(=O)NC(=CC1=O)C2=O | 4690 | 23.9 | – |
| C[C@@H]1O[C@@H](O[C@H]\2CC[C@]\3(C)[C@@H]4CC[C@]5(C)[C@@H](CC[C@@]5(O)[C@H]4CCC3=C2)C/6=C/OC(=O)/C=C6)[C@H](O)[C@H](O)[C@@H]1O | 16.6 | 44.3 | – |
| CC[S+](=O)([O-])c1cccc(-c2cc(C(=O)NC3CCN(C)CC3)c(C)c3[nH]c4ncc(C)cc4c23)c1 | 4690 | 75.8 | – |
| CC(=O)Nc1nc(C)c(-c2ccc(Cl)c([S+](=O)([O-])NCCO)c2)s1 | 14800 | 12.5 | – |
| COc1ccc([C@@H]2CNC(=O)C2)cc1OC1CCCC1 | 2960 | 51 | – |
| COc1c(C)cnc(Cn2cnc3c(Cl)nc(N)nc32)c1C | 2960 | 61.4 | – |
| CCN(CC)CCNC(=O)c1ccc2nc(-c3ccccc3)c(-c3ccc(CN4CCC(n5c(=O)[nH]c6ccccc65)CC4)cc3)nc2c1 | 10500 | 3.89 | – |
| Cc1ncc(-c2ccnc(Nc3ccc([S+](C)(=O)[O-])cc3)n2)n1C(C)C | 10500 | 47.8 | – |
| COc1cccc2cc(-c3nc(C4CCC(C(=O)O)CC4)n4ncnc(N)c34)[nH]c12 (stereo not drawn) | 187 | 59.5 | – |
| CC(C)C[C@H](NC(=O)[C@H](Cc1ccccc1)NC(=O)c1cnccn1)B(O)O | 264 | 3.84 | 150 |
| CCCCOc1c(C(=O)c2c(F)cc(C)cc2F)cnc2[nH]ncc12 | 8330 | 75.8 | – |
| CC(C)C1=N[N](C\2=C1C(=O)N\C(=N2)CC3=CC=C(OCCO)C=C3)C4=C(Cl)C=CC=C4Cl | 132 | 47.9 | – |
| Cc1nc(Nc2ncc(C(=O)Nc3c(C)cccc3Cl)s2)cc(N2CCN(CCO)CC2)n1 | 209 | 58.6 | – |
| O=C(OC)[C@]12CC[C@@]3(C)[C@]4(C)CC[C@H]5[C@@](C)(C)C(=O)C(=C[C@]5(C)C4=CC(=O)[C@@H]3[C@@H]2C[C@](C)(C)CC1)C#N | 2960 | 4.67 | – |
| CNC(=O)[C@H](Cc1ccccc1)NC(=O)[C@H](CC(C)C)[C@H](CSc1cccs1)C(=O)NO | 5260 | 68.4 | – |
| COC1=CC(c2cc3ccccc3[nH]2)=N/C1=C/c1[nH]c(C)cc1C | 10500 | 26.6 | – |

| Structure (SMILES) | AC50 for reduction of cell viability (GUMC-403 [1]; [3]) [nM] | viability (GUMC-403 [2]) | AC50 for reduction of cell viability (GUMC-403 [1]; [4]) [nM] |
| --- | --- | --- | --- |
| Cc1n[nH]c2ccc(-c3cncc(OC[C@@H](N)Cc4ccccc4)c3)cc12 | 2640 | 5.22 | – |
| CC(C)C1=C(O)C=C(O)C(=C1)C/2=N/NC(=O)N2C3=CC4=C(C=C3)[N](C)C=C4 | 148 | 61.4 | – |
| NC(=O)Nc1cc(-c2cccc(F)c2)sc1C(=O)N[C@H]1CCCNC1 | 16600 | 12.8 | – |
| CC(C)n1nc(-c2cc3cc(O)ccc3[nH]2)c2c(N)ncnc21 | – | 69.2 | 1190 |
| O=C(Nc1ccc([N+](=O)[O-])cc1Cl)c1cc(Cl)ccc1O | 4180 | 53.9 | – |
| CC1=C2N=C([NH]C2=CC(=C1)N3CCOCC3)\C4=C(NC[C@@H](O)C5=CC=CC(=C5)Cl)\C=C/NC4=O | 235 | 13.8 | – |
| C[C@H]1CCC/C=C/C2C[C@H](O)C[C@H]2[C@H](O)/C=C/C(=O)O1 (stereo partly drawn) | 10.5 | 31.1 | – |
| COc1cc(N2CCC(C(N)=O)CC2)ccc1Nc1nc(N)c(Cl)c(Nc2ccccc2[S+](=O)([O-])C(C)C)n1 | 8330 | 68.2 | – |
| CC/C(=C(/c1ccc(O)cc1)c1ccc(OCCNC)cc1)c1ccccc1 | 23500 | 23.9 | – |
| Cc1ccc([N+](=O)[O-])cc1[S+](=O)([O-])N(C)/N=C/c1cnc2ccc(Br)cn12 | 23.5 | 8.42 | – |
| C/C=C(/C)C(=O)O[C@H]1C(C)=C2[C@H]([C@@H]1OC(=O)CCCCCCC)[C@@](C)(OC(C)=O)C[C@H](OC(=O)CCC)[C@@]1(O)[C@H]2OC(=O)[C@@]1(C)O | 526 | 57.2 | – |
| CCOc1cc2ncc(C#N)c(Nc3ccc(F)c(Cl)c3)c2cc1NC(=O)/C=C/CN(C)C | 29.6 | 76.1 | – |
| Cc1c(CN2CCN(C(=O)[C@H](C)O)CC2)sc2c(N3CCOCC3)nc(-c3cnc(N)nc3)nc12 | 148 | 54.1 | – |
| CC[S+](=O)([O-])Nc1ccc2c(c1)/C(=C(/Nc1ccc(CN3CCCCC3)cc1)c1ccccc1)C(=O)N2 | 1320 | 50 | – |
| CC(=O)[C@]1(O)Cc2c(O)c3c(c(O)c2[C@@H](O[C@H]2C[C@H](N)[C@H](O)[C@H](C)O2)C1)C(=O)c1ccccc1C3=O | 2350 | 7.29 | – |
| ClC1=CC\2=C(NC(=O)\C(=C2N[C@@H]3CN4CCC3CC4)C5=NC6=C([NH]5)C=CC=C6)C=C1 | 3320 | 16.4 | – |
| CNC(=O)c1nn(C)c2c1C(C)(C)Cc1cnc(Nc3ccc(N4CCN(C)CC4)cc3)nc1-2 | 4690 | 58.7 | – |
| CNCC[C@H](Oc1cccc2ccccc12)c1cccs1 | 10500 | 36 | – |
